SMILES strings stand for the structures.

Consider 1 compound from BindingDB's records for PubMed 36971365 (Dongguk University, 2023).

The assay has as its target Signal transducer and activator of transcription 3 (Homo sapiens, UniProt P40763). The assay is described as follows: Inhibition of STAT3 (unknown origin) transfected in human HepG2 cells assessed as inhibition of IL-6 induced STAT3 phosphorylation by luciferase reporter gene assay. A general note: Reporter assays use an easily measured gene product as a stand-in for the process of interest.

Signal transducer and activator of transcription 3, sequence (P40763 whole entry): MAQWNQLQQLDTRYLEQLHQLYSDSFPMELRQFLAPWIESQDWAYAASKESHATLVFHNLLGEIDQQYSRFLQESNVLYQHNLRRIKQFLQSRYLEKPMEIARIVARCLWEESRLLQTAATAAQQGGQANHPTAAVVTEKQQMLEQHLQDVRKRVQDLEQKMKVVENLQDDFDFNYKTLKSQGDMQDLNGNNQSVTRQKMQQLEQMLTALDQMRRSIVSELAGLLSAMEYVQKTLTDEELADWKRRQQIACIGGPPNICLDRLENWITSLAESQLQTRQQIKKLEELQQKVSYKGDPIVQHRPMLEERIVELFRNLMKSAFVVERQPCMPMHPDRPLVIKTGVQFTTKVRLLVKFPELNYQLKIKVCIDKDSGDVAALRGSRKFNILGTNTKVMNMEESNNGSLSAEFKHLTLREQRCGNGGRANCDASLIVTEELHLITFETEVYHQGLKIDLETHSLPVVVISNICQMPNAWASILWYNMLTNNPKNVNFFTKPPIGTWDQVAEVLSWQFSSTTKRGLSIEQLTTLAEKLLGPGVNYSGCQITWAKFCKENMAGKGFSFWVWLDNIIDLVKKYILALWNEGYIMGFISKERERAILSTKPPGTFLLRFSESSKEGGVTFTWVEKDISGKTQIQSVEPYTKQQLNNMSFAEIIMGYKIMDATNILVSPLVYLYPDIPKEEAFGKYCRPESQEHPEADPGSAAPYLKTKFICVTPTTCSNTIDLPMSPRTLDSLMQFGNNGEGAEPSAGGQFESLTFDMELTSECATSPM

Broadly, the IC50 is the concentration at which inhibition is half-maximal. With `C=C(CCCCC)[C@@H](O)[C@H](C)C(=O)N1C(=O)OC[C@@H]1C(C)C`, the IC50 amounted to 5.9 µM.
